Source: US20240108001A1, “Antibacterial Composition” (LG Chem, Ltd., priority 2021, published 2024)
Blank lines part the entries; values can stand above or below the compound they belong to.

What was measured:
3T3 = experiment: Acute oral toxicity dose LD50 by 3T3 Neutral Red Uptake (NRU) assay (OECD Guidance Document No 129); assay type: cell-based; settings: LD50 calculated from 3T3 NRU assay (OECD GD 129)
Description: The acute oral toxicity dose LD50 was measured by 3T3 Neutral Red Uptake (NRU) assay (OECD Guidance Document No 129). Specifically, LD50 may be calculated by the following method.

[1] = Critical micelle concentration from surface tension at each concentration (Method 5, Du Nouy ring, force tensiometer); assay type: physicochemical; settings: aqueous solutions, measurement repeated three times
Description: A solution comprising the compound comprising quaternary ammonium structure is prepared, and the surface tension of the solution is measured at each concentration. A calibration curve of the surface tension at each concentration is obtained, and the critical micelle concentration of the compound comprising the quaternary ammonium structure is obtained therefrom.
In this case, the surface tension at each concentration may be measured using a surface tension meter (force tensiometer) and a Du Nouy ring method.
In addition, the solution may use a solvent such as distilled water, but the solvent is not limited thereto.
The critical micelle concentrations of Monomers 2 and 3 and Comparative Monomer 2 were measured by Method 5, and are shown in the following Table 4 and FIGS. 4 to 6. More specifically, aqueous solutions (30 mL) were prepared for each concentration of Monomers 2 and 3 and Comparative Monomer 2, and the surface tension was measured using the Du Nouyring method of a force tensiometer. Each measurement was repeated three times. The surface tension was measured by preparing diluted solutions until the surface tension was similar to deionized water. The critical micelle concentration (CMC) was confirmed by confirming through the change in surface tension with concentration that each aqueous solution formed a micelle.

SMILES: C=CC(=O)OCC[N+](CCCC)(CCCC)CCCCCC [Comparative Monomer 1, reference compound]
- Acute oral toxicity dose (mg/Kg) LD50 (3T3): 2,355 mg/Kg

SMILES: C=CC(=O)OCC[N+](CCCCCCCCCCCCCC)(CCCCCCCCCCCCCC)CCCCCCCCCCCCCC [Comparative Monomer 2, reference compound]
- Acute oral toxicity dose (mg/Kg) LD50 (3T3): 231 mg/kg
- Critical micelle concentration (wt %) [1]: 0.06 ± 0.01 wt %

- Critical micelle concentration (wt %) [1]: 1.5 ± 0.3 wt %
SMILES: C=CC(=O)OCC[N+](CCCC)(CCCC)CCCCCCCCCC [Monomer 2]

SMILES: C=CC(=O)OCC[N+](CCCC)(CCCC)CCCCCCCCCCCC [Monomer 3]
- Acute oral toxicity dose (mg/Kg) LD50 (3T3): 843 mg/kg
- Critical micelle concentration (wt %) [1]: 0.25 ± 0.05 wt %

SMILES: C=C(C)C(=O)OCC[N+](CCCC)(CCCCCCCC)CCCCCCCCCC (centres unmarked) [Monomer 7]
- Acute oral toxicity dose (mg/Kg) LD50 (3T3): 998 mg/kg

SMILES: C=C(C)C(=O)OCC[N+](CCCC)(CCCCCCCCCC)CCCCCCCCCC [Monomer 8]
- Acute oral toxicity dose (mg/Kg) LD50 (3T3): 869 mg/kg
